This is an account of results in the NIST ThermoML archive (doi:10.1016/j.jct.2010.02.014).

The nature of the data set: cn = amount concentration of the nth substance listed, in mol/dm3. Conditions: 298.15 K, 101.3 kPa, Liquid, Taylor dispersion method.

`NNC(=O)c1ccncc1` [isonicotinic acid hydrazide] + O: the binary diffusion coefficient (c1 = 0) was 8.26e-10 m2/s, the binary diffusion coefficient (c1 = 0.005) is 8.25e-10 m2/s, the binary diffusion coefficient (c1 = 0.01) came to 8.23e-10 m2/s and the binary diffusion coefficient (c1 = 0.02) was determined as 8.21e-10 m2/s.
